Data set [1] concerns rat embryo ventral mesencephalic (VM) cells. As to the kind of experiment: Neuroprotection assay: NMDA injury of ventral mesencephalic cultures, read by high affinity 3H-dopamine uptake. The format is cell-based. Conditions: embryonic day 15 Sprague-Dawley rat VM cells, NMDA 100-400 μM for 20 hours, read-out: DAT (VM) IC50. The source says: The neuroprotective activity of the compounds of this invention may be assayed using rat embryo ventral mesencephalic cells in culture which are subsequently exposed to the glutamate receptor agonist NMDA. This assay is described in detail in the example section.
The ventral mesencephalic region was dissected out of embryonic day 15 Sprague-Dawley rat embryos (Harlan), dissociated into single cell suspension by a combination of trypsinization and trituration (Costantini et al., Neurobiol Dis., pp. 97-106 (1998). Dissociated VM cells were plated into poly-L-ornithine-coated 96-well plates at a density of 85,000 cells/well in 100 uL of DMEM supplemented with 18% heat-inactivated horse serum, 0.24% glucose, 2 mM glutamine and 50 u/ml pernicillin/streptomycin and incubated in a 5% CO2 incubator. After one day in culture (DIV1), the medium was replaced with 100 μL of a defined medium (DMEM supplemented with 1×N2 cocktail (Gibco-BRL), 0.12% glucose, 2 mM glutamine, and […] penicillin/streptomycin) containing DMSO or various concentrations of the compounds of this invention. On DIV5, neuroexcitotoxic injury was induced by the addition of various concentrations of the glutamate receptor agonist NMDA (100-400 μM). Cultures were incubated with the neurotoxin for 20 hours and the effects of neurophilin compounds were assessed using high affinity ^3H-dopamine uptake according to a procedure published by Park and Mytilineou [Brain Res., 599, pp. 83-97 (1992)].

In patent publication US20040180880A1, “Piperazine and piperidine derivatives” (priority 2002, published 2004) one finds IC50 and melting point data, which are given here for four compounds.

Structures can show the parent of a compound that is named as a salt.

Take `O=C(C1CCCCN1)N1CCN(C(c2ccc(F)cc2)c2ccc(F)cc2)CC1` (stereo not shown) [Compound 28, (4-(Bis-(4-fluoro-phenyl)-methyl)piperazine-1-yl)-piperidin-2-yl-methanone dihydrochloride]: the IC50 in data set [1] was determined as 12 nM.
Consider `O=C(C1CCCCN1)N1CCN(C(c2ccc(F)c(F)c2)c2ccc(F)c(F)c2)CC1` (stereo not shown) [Compound 17, (4-(Bis-(3,4-difluoro-phenyl)-methyl)piperazine-1-yl)-piperidin-2-yl-methanone], for which, in data set [1], the IC50 stood at 6 nM.
`O=C(C1CCCCN1)N1CCN(C(c2ccc(F)cc2F)c2ccc(F)cc2F)CC1` (stereo not shown) (as salt: hydrochloride) [Compound 9, {4-[Bis-(2,4-difluoro-phenyl)-methyl]-piperazin-1-yl}-piperidin-2-yl-methanone] registered a melting point of 84 to 85 °C.
For `O=C(C1CCCCN1)N1CCN(C(c2ccc(F)cc2F)c2ccc(F)cc2F)CC1` (stereo not shown) [Compound 9, {4-[Bis-(2,4-difluoro-phenyl)-methyl]-piperazin-1-yl}-piperidin-2-yl-methanone], the IC50 in data set [1] worked out at 145 nM.

What is called IC50 is the concentration that inhibits the measured activity by half. What is called melting point is the temperature, or range, at which the solid turns liquid.
